Data from patent US10001483B2, “Methods for the treatment of Kaposi's sarcoma or KSHV-induced lymphoma using immunomodulatory compounds, and uses of biomarkers” (Celgene Corporation, priority 2015, dated 2018).
“Also recorded” adds a separate entry of the source.

Assays:
[1] = Pharmacokinetic studies: plasma concentrations of pomalidomide in KS patients (HPLC with fluorescence detection); type: in vivo, human
Method: A non-compartmental analysis was used to calculate plasma pharmacokinetic parameters (Pharsight Corp, Mountain View, Calif.). The maximum plasma concentration (CMAX) and time to CMAX (TMAX) were recorded as observed values; the area under the plasma concentration vs time curve (AUC) was calculated using the log-linear trapezoidal method. For day 1 of cycle 1 (C1D1), the AUC extrapolated to infinity (AUCINF) was used, unless the percent extrapolated exceeded 25%, in which case AUCLAST (to the last quantifiable time point) was used. The steady-state exposure on C1D15 was calculated using AUCLAST.
Pharmacokinetic Studies were performed pre-dose on cycle 1 day 1 and day 15. Across all analyzed doses: TMAX=2.71±1.73 hrs, T1/2=7.10±2.48 hours, and CMAX=61.21±29.30 ng/mL. […] Comparing HIV infected with non-infected subjects, for CMAX at C1D1 p=0.45, at C1D15 p=0.80 at C1D15 and comparing changes from baseline p=0.91; for AUCLAST at C1D1, p=0.63; at C1D15 p=0.97 and comparing changes from baseline p=0.91.

lymphocyte subsets = test: Immunologic correlatives: lymphocyte numbers and T cell subsets/activation by immunophenotyping of PBMC; type: in vivo, human; conditions: for CD4 and CD8 counts: week 4 and week 8 of therapy
Method: Aspirin at 81 mg daily was administered as thromboprophylaxis. Assessments were performed every 4 weeks for lymphocyte numbers, Kaposi sarcoma associated herpesvirus (KSHV/HHV8) viral load (VL) and HIV VL and at 8 weeks for T cell subsets and activation by immunophenotyping of peripheral blood mononuclear cells (PBMC). KSHV VL in PBMC and HIV VL in plasma were assayed by quantitative PCR; an ultrasensitive single copy assay was used for HIV VL. Changes from baseline were evaluated using the Wilcoxon signed rank test with P<0.005 considered significant given multiple comparisons. Differences in changes between the HIV infected and uninfected groups were evaluated using the Wilcoxon rank sum test. Median time of the patients on therapy 7 cycles (range 2-12).
Laboratory Assays: Lymphocyte subsets were assessed by fluorescent-activated cell sorting using the BlueOcean platform (Beckman Coulter, Carlsbad, Calif.). Plasma HIV-1 […] was evaluated using an ultrasensitive assay whose sensitivity was 1 viral copy per plasma volume. Briefly, a triplex PCR was used using a modification of a previously reported assay with three primers: one spanning the start codon of gag, one in the gag coding region, and one internal control. Samples were tested from 6 mL plasma aliquots, with 12 replicants per sample. KSHV VL in peripheral blood mononuclear cells (PBMC) was assessed by quantitative real-time PCR.
Changes in immunologic and virologic parameters were evaluated by a Wilcoxon signed rank test. Exact Wilcoxon rank sum tests were used to compare pharmacokinetic parameters at each time point and differences from baseline. All p-values are two-tailed and reported without adjustment for multiple comparisons. HRQL was analyzed using a using a mixed model repeated measures analysis for FAHI and the marginal homogeneity test for KS-specific questions

MHC-1 = test: Butyrate induced (lytic KSHV activation) MHC-1 down-regulation in BCBL-1 cells, FACS and Western blot; type: cell-based; conditions: pretreatment 24 h before butyrate
Method: In addition, the effect of the immunomodulatory drugs on KSHV down-regulation of MHC-1 during lytic activation was investigated by FACS analysis after pretreating the cells with Immunomodulatory drugs prior to lytic activation with butyrate.
Flow Cytometry Analysis and Antibodies: For flow cytometry analysis of MHC-I expression, cells were plated at 400,000 cells/mL and pretreated with immunomodulatory agents as indicated. After twenty-four hours, cells were treated with butyrate at indicated amounts to induce lytic activation and down-regulation of MHC-I. After another twenty-four hours, cells were analyzed on FACS and extracts were prepared as indicated. For flow cytometry analysis, the cells, 1×105 per sample, were incubated with indicated conjugated monoclonal antibodies for 30 min at 4° C. After washing twice with PBS, cells were resuspended in PBS and flow cytometry analysis was performed with a FACSCalibur. FITC-conjugated antibodies to anti-HLA MHC Class I (Sigma-Aldrich) and PE-conjugated antibodies to anti-DR MHC Class II (BioLegend) were used for flow cytometry.

KSHV K3 and K5 = test: K3 and K5 protein expression in BCBL-1 cells after lytic activation, Western blot; type: cell-based; conditions: following lytic activation
Method: Western Blotting: At the end of an incubation period, cells were lysed and nuclear/cytoplasmic extracts were prepared using the NE-PER nuclear extraction kit (Pierce). Samples were subjected to SDS-PAGE (4 to 12% NuPAGE Tris-Bis) (Invitrogen) and transferred to nitrocellulose. The membrane was blocked with 5% w/v nonfat dry milk in 1×TBST (10 mM Tris-Hcl, […], 150 mM NaCl, and 0.05% Tween 20) overnight at 4° C. Blots were incubated with indicated antibodies such as anti-IRF-7 (Santa Cruz), anti-IRF-4 (Cell Signaling), anti-p21 (Cell Signaling), anti-NF-κB p65 (Cell Signaling), anti-NF-κB phospho-p65 (Cell Signaling), IFN-γRa (Cell Signaling), or anti-CRBN (Sigma-Aldrich), and subjected to the appropriate secondary antibody conjugated to alkaline phosphatase (Promega). Bands were visualized with Western Blue stabilized substrate (Promega). Membranes were scanned and images were processed as described.
Flow Cytometry Analysis and Antibodies: For flow cytometry analysis of MHC-I expression, cells were plated at 400,000 cells/mL and pretreated with immunomodulatory agents as indicated. After twenty-four hours, cells were treated with butyrate at indicated amounts to induce lytic activation and down-regulation of MHC-I. After another twenty-four hours, cells were analyzed on FACS and extracts were prepared as indicated. […]

[2] = human, po, plasma, across all analyzed doses, cycle 1 day 1 and day 15, 5 mg orally

With `Nc1cccc2c1C(=O)N(C1CCC(=O)NC1=O)C2=O` (stereo not shown) [pomalidomide, 4-amino-2-(2,6-dioxopiperidin-3-yl)isoindoline-1,3-dione] the accumulation ([1]; from day 1 to day 15) was “No evidence of accumulation”, the “differences in pharmacokinetics by ART regimen” value ([1]; human, in vivo) was “No significant differences” and the “differences in pharmacokinetics by HIV status” value ([1]; human, in vivo) was “No significant differences”. It also gave a Tmax [1, 2] of 2.71 ± 1.73 h, a half-life [1, 2] of 7.1 ± 2.48 h and a Cmax ([1]; plasma, across all analyzed doses, cycle 1 day 1 and day 15, 5 mg orally) of 61.21 ± 29.30 ng/mL. The “CD19 B-cells” value (lymphocyte subsets; during therapy) was “decline; also recorded: reversible decrease”, the NK cells (lymphocyte subsets; during therapy) was “no significant change” and the “Ki67 or PD-1 expression in CD4 or CD8 cells” value (lymphocyte subsets; in vivo) was “no significant changes”. The “difference between HIV infected and uninfected patient groups in observed effects (cell number and phenotype)” value (lymphocyte subsets; in vivo) was “no significant difference”, the “CD3 (cells/μL) Change to End Therapy (Med, range)” value (lymphocyte subsets; median change from baseline) was “+11 cells/μL” and the “CD3 (cells/μL) Change to Week 8 (Med, range)” value (lymphocyte subsets; median change from baseline) was “+190 cells/μL”. The “CD4 (cells/μL) Change to End Therapy (Med, range)” value (lymphocyte subsets; median change from baseline) was −46 cells/μL, the “CD4 (cells/μL) Change to Week 8 (Med, range)” value (lymphocyte subsets; median change from baseline) was “+40 cells/μL” and the “CD8 (cells/μL) Change to End Therapy (Med, range)” value (lymphocyte subsets; median change from baseline) was 104 cells/μL. The “CD8 (cells/μL) Change to Week 8 (Med, range)” value (lymphocyte subsets; median change from baseline) was “+142 cells/μL”, the “CD19 (cells/μL) Change to End Therapy (Med, range)” value (lymphocyte subsets; median change from baseline) was −87 cells/μL and the “CD19 (cells/μL) Change to Week 8 (Med, range)” value (lymphocyte subsets; median change from baseline) was −70 cells/μL. For the same compound, the “NK (cells/μL) Change to End Therapy (Med, range)” value (lymphocyte subsets; median change from baseline) was 10 cells/μL, the “NK (cells/μL) Change to Week 8 (Med, range)” value (lymphocyte subsets; median change from baseline) was −6 cells/μL and the “CD19 (cells/μL) Change to Week 4 (Med, range)” value (lymphocyte subsets; median change from baseline 141) was −35 cells/μL. For the same compound, the “NK (cells/μL) Change to Week 4 (Med, range)” value (lymphocyte subsets; median change from baseline 178) was “+23 cells/μL”, the “CD4 (cells/μL) Change to Week 4 (Med, range)” value (lymphocyte subsets; median change from baseline 440) was “+108 cells/μL” and the “CD8 (cells/μL) Change to Week 4 (Med, range)” value (lymphocyte subsets; median change from baseline 500) was “+101 cells/μL”. For the same compound, the “CD3 (cells/μL) Change to Week 4 (Med, range)” value (lymphocyte subsets; median change from baseline 1184) was “+275 cells/μL”, the “CD4 Subsets 38+ DR+: Absolute Change in % at Week 8 (med, range)” value (lymphocyte subsets; median, baseline 2.5 %) was “+2%” and the “CD4 Subsets RO− 27− (E): Absolute Change in % at Week 8 (med, range)” value (lymphocyte subsets; median, baseline 3.3 %) was −1.5%. The “CD4 Subsets 57+: Absolute Change in % at Week 8 (med, range)” value (lymphocyte subsets; median, baseline 6.3 %) was −1.34%, the “CD8 Subsets 38+ DR+: Absolute Change in % at Week 8 (med, range)” value (lymphocyte subsets; median, baseline 8.0 %) was “+8.5%” and the “CD4 Subsets HLA DR+: Absolute Change in % at Week 8 (med, range)” value (lymphocyte subsets; median, baseline 8.9 %) was “+8.3%”. The “CD4 Subsets RO+ 27− (EM): Absolute Change in % at Week 8 (med, range)” value (lymphocyte subsets; median, baseline 16.7 %) was “+1.7%”, the “CD8 Subsets RO+ 27+ (CM): Absolute Change in % at Week 8 (med, range)” value (lymphocyte subsets; median, baseline 17.1 %) was “+8.1%” and the “CD8 Subsets RO+ 27− (EM): Absolute Change in % at Week 8 (med, range)” value (lymphocyte subsets; median, baseline 18.4 %) was “+1.0%”. For the same compound, the “CD8 Subsets HLA DR+: Absolute Change in % at Week 8 (med, range)” value (lymphocyte subsets; median, baseline 19.6 %) was “+11.6%”, the “CD8 Subsets RO− 27+ (N): Absolute Change in % at Week 8 (med, range)” value (lymphocyte subsets; median, baseline 21.0 %) was −5.1% and the “CD8 Subsets 57+: Absolute Change in % at Week 8 (med, range)” value (lymphocyte subsets; median, baseline 30.8 %) was −11.0%. For the same compound, the “CD8 Subsets RO− 27− (E): Absolute Change in % at Week 8 (med, range)” value (lymphocyte subsets; median, baseline 31.8 %) was −6.1%, the “CD4 Subsets RO− 27+ (N): Absolute Change in % at Week 8 (med, range)” value (lymphocyte subsets; median, baseline 32.6 %) was −6.6% and the “CD8 Subsets 38+: Absolute Change in % at Week 8 (med, range)” value (lymphocyte subsets; median, baseline 33.4 %) was “+19.9%”. For the same compound, the “CD4 Subsets 38+: Absolute Change in % at Week 8 (med, range)” value (lymphocyte subsets; median, baseline 34.5 %) was “+4.3%”, the “CD4 Subsets RO+ 27+ (CM): Absolute Change in % at Week 8 (med, range)” value (lymphocyte subsets; median, baseline 41.9 %) was “+6.4%” and the “CD4 and CD8 counts” value (lymphocyte subsets) was “Significant increases”. For the same compound, the “CD4 and CD8 counts” value (lymphocyte subsets; listed as Pomalidomide) was “significant increases”, the “activation (CD38+, HLADR+ and DR+/38+) of CD4 and CD8 T-cells” value (lymphocyte subsets; week 8) was “significant increases” and the “senescence (CD57+) of CD4 and CD8 T-cells” value (lymphocyte subsets; week 8) was “decreases”. The “down-regulation of MHC Class I expression upon lytic KSHV activation” value (MHC-1; FIGS. 7A-7C and FIG. 8) was “inhibits MHC-1 down-regulation”, the “down-regulation of MHC Class I expression upon lytic KSHV activation” value (MHC-1; FIGS. 7A-7C and FIG. 8, listed as Pomalidomide) was “substantially more effective at preventing the down-regulation” and the “protein expression level of KSHV K3 or K5” value (KSHV K3 and K5; FIG. 8) was “appears not to prevent K3 and K5 expression”. The “protein expression level of KSHV K3 or K5” value (KSHV K3 and K5; FIG. 8, listed as Pomalidomide) was “did not significantly change the protein expression level”.
